This passage reports photoluminescence quantum yield results from the Deep4Chem optical property database.

A short description of this data set: photoluminescence quantum yield (fraction); solvent given as SMILES.

On to `CCCCCCC(CCCCCC)N1C(=O)c2cccc3c(-c4cc(OC)c(OC)c(OC)c4)ccc(c23)C1=O`, for which the photoluminescence quantum yield reads like this: (in CCCCCC) 0.41; (in CCCCCCCCCCCCCC) 0.51; (in CCCCCCCCCCCO) 0.26; (in CCCCO) 0.022; (in CN(C)C=O) 0.0065; (in Cc1ccccc1) 0.71. The same molecule had a photoluminescence quantum yield (in ClC(Cl)Cl) of 0.65.
For the molecule `CC1=C(C(C)(C)C)C(C)=[N+]2C1=C(C)c1c(C)c(C(C)(C)C)c(C)n1[B-]2(F)F`, the photoluminescence quantum yield (in C1CCCCC1) came to 0.32; the photoluminescence quantum yield (in C1CCOC1) was 0.37; the photoluminescence quantum yield (in C1COCCO1) turned out to be 0.4; the photoluminescence quantum yield (in CC#N) worked out at 0.44; the photoluminescence quantum yield (in CC(C)=O) turned out to be 0.44; the photoluminescence quantum yield (in CC(C)CC(C)(C)C) was 0.4. The photoluminescence quantum yield worked out at 0.4 (in CCC(C)C); 0.46 (in CCCC(C)=O); 0.43 (in CCCCCC); 0.41 (in CCCCCCCCO); 0.42 (in CCCCCCO); 0.39 (in CCCCO). Moreover, the photoluminescence quantum yield was determined as 0.43 (in CCCCOC(C)=O); 0.39 (in CCCO); 0.43 (in CCO); 0.44 (in CCOC(C)=O); 0.43 (in CCOCC); 0.35 (in CN(C)C=O). Moreover, the photoluminescence quantum yield worked out at 0.47 (in CNC=O), 0.48 (in CO), 0.48 (in COC(C)=O) and 0.49 (in OCC(F)(F)F).
With `CC(C)(C)c1ccc2c(c1)c1cc(C(C)(C)C)ccc1n2-c1ccc(N(c2ccc(-c3ccc(N(c4ccc(-n5c6ccc(C(C)(C)C)cc6c6cc(C(C)(C)C)ccc65)cc4)c4ccc(-n5c6ccc(C(C)(C)C)cc6c6cc(C(C)(C)C)ccc65)cc4)cc3)cc2)c2ccc(-n3c4ccc(C(C)(C)C)cc4c4cc(C(C)(C)C)ccc43)cc2)cc1`, the photoluminescence quantum yield (in ClCCl) is 0.55.
Take `CC(C)[Si](C#Cc1ccc(C#C[Si](C(C)C)(C(C)C)C(C)C)c2nc3c(ccc4ccccc43)nc12)(C(C)C)C(C)C`: the photoluminescence quantum yield (in CCCCCC) turned out to be 0.05.
`CCCCCCNC(=O)c1sc(-c2ccc(-c3cc(-c4ccc(C(C)(C)C)cc4)c(C(=O)NCCCCCC)s3)s2)cc1-c1ccc(C(C)(C)C)cc1` displayed a photoluminescence quantum yield (in ClCCl) of 0.31.
Molecule `CC(C)(C)NC(=O)c1ccc(C(=O)NC(C)(C)C)c2c1c1c3ccc(Cl)cc3c3cc(Cl)ccc3c1c1c3ccc(Cl)cc3c3cc(Cl)ccc3c21` had a photoluminescence quantum yield (in ClCCl) of 0.07.
`Cc1cc(C)c(-c2cc(-c3c(C)cc(C)cc3C)c3ccc4c(-c5c(C)cc(C)cc5C)cc(-c5c(C)cc(C)cc5C)c5ccc2c3c54)c(C)c1` had a photoluminescence quantum yield (in ClCCl) of 0.28.
Turning to `CC1(C)CC[N+]2=c3c(cc4c(c31)Oc1cc3c(cc1C=4c1ccccc1C(=O)O)C(c1ccccc1C(=O)O)=c1cc4c5c(c1O3)C(C)(C)CC[N+]=5CCC4)CCC2`, where the note is “in ClC(Cl)Cl”, the photoluminescence quantum yield stood at 0.55.
On the same count and under the same terms, the figure for `CC(C)(C)c1ccc(C2=c3sc(-c4ccc(C(C)(C)C)cc4)cc3=[N+]3C2=Nc2c(-c4ccc(C(C)(C)C)cc4)c4sc(-c5ccc(C(C)(C)C)cc5)cc4n2[B-]3(F)F)cc1` is 0.12.
For `CN(C)c1ccc2c(-c3cc(N)ccc3C(=O)[O-])c3ccc(=[N+](C)C)cc-3oc2c1`, the photoluminescence quantum yield (in CCO) stood at 0.016 and the photoluminescence quantum yield (in O) is 0.022.
For the molecule `CCCCCCN1C(=O)c2cccc3c(-c4scc5c4OCCO5)ccc(c23)C1=O`, the photoluminescence quantum yield (in ClC(Cl)Cl) is 0.61.
On to `O=C(O)CCCc1cc(C#Cc2ccccc2)c2ccc3c(C#Cc4ccccc4)cc(C#Cc4ccccc4)c4ccc1c2c34`, for which the photoluminescence quantum yield was 0.72 (in CS(C)=O) and 0.56 (in ClC(Cl)(Cl)Cl).
Regarding `CN(C)c1ccc(/C=C2\CC/C(=C\c3ccc(C#N)cc3)C2=O)cc1`, the photoluminescence quantum yield reads like this: (in C1CCOC1) 0.027; (in CC#N) 0.0036; (in CC(C)=O) 0.0095; (in CC(C)O) 0.026; (in CCCCO) 0.017; (in CCCCOC(C)=O) 0.14. The photoluminescence quantum yield turned out to be 0.013 (in CCCO); 0.0061 (in CCO); 0.18 (in CCOC(=O)c1ccccc1); 0.09 (in CCOC(C)=O); 0.074 (in CCOCC); 0.0066 (in CN(C)C=O). The photoluminescence quantum yield (in CO) was determined as 0.0027; the photoluminescence quantum yield (in CS(C)=O) came to 0.0074; the photoluminescence quantum yield (in Cc1ccccc1) amounted to 0.05; the photoluminescence quantum yield (in ClC(Cl)(Cl)Cl) amounted to 0.019; the photoluminescence quantum yield (in ClC(Cl)Cl) worked out at 0.3; the photoluminescence quantum yield (in ClCCl) turned out to be 0.17. The molecule further came in with a photoluminescence quantum yield (in Clc1ccccc1Cl) of 0.29; a photoluminescence quantum yield (in O=C1CCCC1) of 0.034; a photoluminescence quantum yield (in S=C=S) of 0.034; a photoluminescence quantum yield (in c1ccccc1) of 0.066; a photoluminescence quantum yield (in c1ccncc1) of 0.051.
In the case of `COc1ccc2[nH]cc(/C=C/C3=[NH+]c4cccc5cccc3c45)c2c1`, the photoluminescence quantum yield (in CO) was 0.0486.
The molecule `N#Cc1ccccc1N1c2ccccc2C(c2ccccc2)(c2ccccc2)c2ccccc21` gave a photoluminescence quantum yield (in Cc1ccccc1) of 0.33.
With `CCCCN(CCCC)c1ccc(/C=C/c2ccc(-c3ccc(/C=C/c4ccc(N(CCCC)CCCC)cc4)cc3)cc2)cc1`, the photoluminescence quantum yield by setting is: (in CS(C)=O) 0.89; (in Cc1ccccc1) 0.81.
Where the note is “in ClCCl”, `c1ccc(CSc2c3ccc(=[N+]4CCCCC4)cc-3oc3cc(N4CCCCC4)ccc23)cc1` came in with a photoluminescence quantum yield of 0.79.
Take `CC1(C)[C@@H]2[C@@H]1[C@]1(c3ccccc3)N=NC2(c2ccccc2)C2C3C=CC(C3)C21` (stereo partly specified): the photoluminescence quantum yield (in CC#N) worked out at 0.08.
For the molecule `C[Si]1(C)c2ccc(C#Cc3ccccc3)cc2C=Cc2cc(C#Cc3ccccc3)ccc21`, the photoluminescence quantum yield (in ClCCl) amounted to 0.36.
In turn, `Cc1ccc2c3ccc(C)cc3c3cc4c(C)cc(=O)oc4cc3c2c1` showed a photoluminescence quantum yield (in ClC(Cl)Cl) of 0.11.
For `Cc1nc2cccc(-c3nc4ccccc4[nH]3)c2c(=O)[nH]1`, the photoluminescence quantum yield (in CN(C)C=O) is 0.088.
For the molecule `COc1cc2cc(C#Cc3ccc(/C=C(\C#N)C(=O)O)cc3)c(=O)oc2cc1OC`, the photoluminescence quantum yield (in CC#N) was found to be 0.05.
For the setting “in C1CCOC1”, `O=P1(c2ccccc2)C(c2cccs2)=C(c2cccs2)c2ccccc21` (stereo unspecified) yielded a photoluminescence quantum yield of 0.006.
As for `Cc1nnc(-c2ccc(-n3c4ccccc4c4ccccc43)cc2)o1`, under “in Cc1ccccc1”, the photoluminescence quantum yield was found to be 0.55.
In turn, `CCN1C(=CC2=C([O-])C(=CC3=[N+](CC)c4ccccc4C3(C)C)C2=O)C(C)(C)c2ccccc21` gave a photoluminescence quantum yield (in CC(C)O) of 0.09.
Turning to `Cc1ccccc1-c1c2ccc(=[N+]3CCN(C(=O)OC(C)(C)C)CC3)cc-2oc2cc(N3CCN(C(=O)OC(C)(C)C)CC3)ccc12`, the photoluminescence quantum yield came out at 0.19 (in CCO) and 0.47 (in ClCCl).
On to `CCOC(=O)CN(CC(=O)OCC)c1ccc(-c2cc(-c3ccncc3)nc(-c3ccncc3)c2)cc1`, for which the photoluminescence quantum yield runs as follows: (in CC#N) 0.3; (in CCOC(C)=O) 0.48; (in CN(C)C=O) 0.2; (in CS(C)=O) 0.23; (in c1ccccc1) 0.5.
Molecule `C1=Cc2ccccc2C(=Cc2ccc(C=C3c4ccccc4-c4ccccc43)cc2)c2ccccc21` showed a photoluminescence quantum yield (in C1CCOC1) of 4e-05.
Consider `CCCCNc1nn(-c2ccc(OC)cc2)nc1C#N`, for which the photoluminescence quantum yield (in CC#N) is 0.918.
The same measure, in the same setting: the figure for `CCN(CC)c1ccc(/C=N/CC/N=C/c2ccc(N(CC)CC)cc2O)c(O)c1` is 0.13.
`CCN(CC)c1ccc2cc(-c3ccc(-c4ccc5ccc6c(-c7ccc(-c8cc9ccc(N(CC)CC)cc9oc8=O)cc7)ccc7ccc4c5c76)cc3)c(=O)oc2c1`: the photoluminescence quantum yield (in ClC(Cl)Cl) came to 0.893.
Take `CC(=O)c1ccc2ccc3cccc4ccc1c2c34`: the photoluminescence quantum yield runs as follows: (in C1CCOC1) 0.002; (in CC#N) 0.002; (in CCCCCC) 0.002; (in CCO) 0.012; (in CN(C)C=O) 0.002; (in CO) 0.014. For the same molecule, the photoluminescence quantum yield is, setting by setting: (in Cc1ccccc1) 0.003; (in ClCCl) 0.002.
Molecule `C(=C\c1ccc(-n2c3ccccc3c3ccccc32)cc1)/c1ccc(-c2ccc(/C=C/c3ccc(-n4c5ccccc5c5ccccc54)cc3)cc2)cc1` yielded a photoluminescence quantum yield (in Cc1ccccc1) of 0.89 and a photoluminescence quantum yield (in c1ccc2c(c1)c1ccccc1n2-c1ccc(-c2ccc(-n3c4ccccc4c4ccccc43)cc2)cc1) of 0.98.
Turning to `CCCCCCOc1ccc(/C=C/c2ccc(N(c3ccc(/C=C/c4ccc(OCCCCCC)cc4)cc3)c3ccc(-c4nc5ccccc5nc4-c4ccc(N(c5ccc(/C=C/c6ccc(OCCCCCC)cc6)cc5)c5ccc(/C=C/c6ccc(OCCCCCC)cc6)cc5)cc4)cc3)cc2)cc1`, for the setting “in C1CCOC1”, the photoluminescence quantum yield was 0.66.
For `CCN(CC)c1ccc(-c2nc(Oc3ccc(-c4nc5ccccc5s4)cc3)nc(Oc3ccc(-c4nc5ccccc5s4)cc3)n2)cc1`, where the note is “in CN(C)C=O”, the photoluminescence quantum yield came out at 0.155.
As to `COC(=O)c1nc2c(OCc3ccccc3)nc(N)nc2n1Cc1ccccc1`, the photoluminescence quantum yield was determined as 0.95 (in C1COCCO1), 0.87 (in CC#N), 0.92 (in CO) and 0.95 (in ClCCl).
`O=C1c2ccc3c4c(-c5ccccc5)cc5c6c(ccc(c7c(-c8ccccc8)cc(c2c37)C(=O)N1C1CCCCC1)c64)C(=O)N(C1CCCCC1)C5=O`: where the note is “in ClC(Cl)Cl”, the photoluminescence quantum yield came out at 0.186.
On to `COC(=O)C([NH3+])Cc1ccc2oc(-c3ccncc3)nc2c1` (stereo unspecified), for which the photoluminescence quantum yield worked out at 0.01 (in CC1CCCCC1), 0.05 (in CC#N), 0.18 (in CO) and 0.22 (in O).
Regarding `COc1ccc(C2=Cc3ccccc3P2(=O)c2ccccc2)cc1` (stereo unspecified), the photoluminescence quantum yield is, setting by setting: (in C1CCOC1) 0.41; (in ClCCl) 0.82.
